SMILES strings stand for the structures.

The text below walks through data of PMC7923628 (Proceedings of the National Academy of Sciences of the …, 2021).

The target of one assay is E3 ROC1–CUL1 CTD (Homo sapiens, UniProt Q13616). The assay is described as follows: FRET K48 di-Ub synthesis with ROC1–CUL1 CTD. The class given is biochemical. The following applies: for blocking ubiquitination (in words): Table S2.
Another assay deals with E3 ROC1–CUL1 CTD complex (Homo sapiens, UniProt Q13616). Put plainly: MST ligand binding to ROC1–CUL1 CTD. The settings on record: Table S2.
Sequence of E3 ROC1–CUL1 CTD complex (Q13616 411-776): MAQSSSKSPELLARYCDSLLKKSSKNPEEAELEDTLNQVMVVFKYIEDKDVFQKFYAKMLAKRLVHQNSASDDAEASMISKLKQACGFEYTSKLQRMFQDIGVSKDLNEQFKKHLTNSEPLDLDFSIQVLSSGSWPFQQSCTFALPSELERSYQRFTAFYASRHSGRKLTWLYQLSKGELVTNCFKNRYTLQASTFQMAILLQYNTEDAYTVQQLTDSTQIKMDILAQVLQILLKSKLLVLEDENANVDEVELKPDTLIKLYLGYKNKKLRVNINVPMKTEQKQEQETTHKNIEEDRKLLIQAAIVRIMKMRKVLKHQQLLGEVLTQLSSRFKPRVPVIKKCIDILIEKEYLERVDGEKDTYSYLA
Sequence of E3 ROC1–CUL1 CTD complex (P62877 whole entry partner): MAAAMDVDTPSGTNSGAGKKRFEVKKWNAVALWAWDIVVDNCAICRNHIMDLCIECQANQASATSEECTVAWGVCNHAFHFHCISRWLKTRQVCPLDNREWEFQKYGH
For a further assay, the system named is p27. The assay is described as follows: Immunoblot of CRL1/SCF^Skp2 substrate p27 in MV4-11 cells. The class given is cell-based, human. (In general: A western blot detects proteins with antibodies after separation by electrophoresis.)
For another assay, the system named is MV4-11 tumors. Put plainly: AML MV4-11 subcutaneous xenograft in mice. The class given is in vivo, mouse. The settings on record: G5, 3 mg/kg, oral, QD.

Sequence of E3 ROC1–CUL1 CTD (Q13616 411-776): as the sequence (Q13616 411-776) above
Sequence of E3 ROC1–CUL1 CTD (P62877 whole entry partner): as the sequence (P62877 whole entry partner) above

On to `Cc1oc2c(O)c(O)ccc2c(=O)c1Oc1ccccc1` [33-2, 7,8-dihydroxy-2-methyl-3-phenoxy-4H-chromen-4-one], for which the “drop in IC50” value at E3 ROC1–CUL1 CTD (compared with 33) was “sevenfold”. As for `COc1ccc2c(=O)c(Oc3ccccc3)c(C)oc2c1OC` [33-3, 7,8-dimethoxy-2-methyl-3-phenoxy-4H-chromen-4-one], the “E3 binding (in words)” value at E3 ROC1–CUL1 CTD complex is “completely inactive”. Also, the “blocking ubiquitination (in words)” value at E3 ROC1–CUL1 CTD is “completely inactive”. As for `O=c1c(Oc2ccccc2)c(C(F)(F)F)oc2cc(O)ccc12` [33-7, 7-hydroxy-3-phenoxy-2-(trifluoromethyl)-4H-chromen-4-one], the “blocking ubiquitination (in words)” value on E3 ROC1–CUL1 CTD is “inactive”.

Take `NS(=O)(=O)OC[C@@H]1C[C@@H](n2ccc3c(N[C@H]4CCc5ccccc54)ncnc32)C[C@@H]1O` [MLN4924]: in the assay on p27, the “effect on p27 level” value was “stabilized”. Molecule `CNC(=O)c1cc(Oc2ccc(NC(=O)Nc3ccc(Cl)c(C(F)(F)F)c3)cc2)ccn1` [sorafenib] displayed a tumor inhibition with MV4-11 tumors of 46.02%.
